For assay [1], the system named is Human-derived Periodontal Ligament Cells (PDL Cells). The assay is described as follows: Cell growth of PDL cells (cell number by Coulter counter). The format is cell-based. Conditions: peptide added at various concentrations to DMEM containing 2% FBS; counted on Days 4 and 6; versus control medium (FIG. 1, FIG. 2). The text has this:
PDL cells were isolated from a healthy premolar carefully extracted from a patient who visited a hospital to extract teeth for orthodontic treatment so that periodontal ligament should not be damaged as far as possible, and cultured. The extracted tooth was washed with sterilized physiological saline and phosphate-buffered saline (PBS, Nissui), and then periodontal ligament existing in ⅓ of the tooth root at the center was scraped off with a sharp knife. The pieces of periodontal ligament were transferred to a plastic plate and minced into small fragments using a round-blade knife. Tissue fragments were left standing in a plate having a diameter of 35 mm (FALCON) and cultured in Dulbecco's modified Eagle medium (DMEM, Nissui) containing antibiotics (100 U/ml of penicillin G, 100 μg/ml of streptomycin and 250 μg/ml of gentamicin) and 10% fetal bovine serum (FBS, EQUITECH-BIO) at 37° C. under 5% CO2. […]
The PDL cells prepared in (1) were inoculated on a 24-well culture plate (FALCON) at a ratio of 5×10^3 cells/well. […] On Days 4 and 6, the cells were separated and dispersed by using PBS containing 0.08% trypsin and 0.04% ethylenediaminetetraacetic acid (EDTA), and cell number was counted by using a Coulter counter (COULTER Z1, Coulter Electronics). […]

For assay [2], the system named is PDL cells. The assay is described as follows: Calcification product forming ability of PDL cells (Dahl's calcium staining, alizarin red S). It is filed as cell-based, human. The note with it: peptide at various concentrations, 10 mM sodium β-glycerophosphate, three weeks after confluent state. As for the experimental part:
The following experiment was performed to examine effect of the peptide on calcification product forming ability of cells.
To assess calcification ability of cells, Dahl's calcium staining was performed. The PDL cells were inoculated on a 24-well culture plate at a ratio of 5×10^3 cells/well, and cultured in 2S-containing DMEM added with the peptide (a) or (c) at various concentrations and adjusted by addition of 10 mM sodium β-glycerophosphate. Three weeks after the cells reached a confluent state, the cells were washed with PBS, fixed with neutrally buffered formalin and stained with alizarin red S (Wako Pure Chemical Industries).

The test system of assay [3] is MC3T3 cells. The assay is described as follows: Calcification product forming ability of MC3T3 cells (Dahl's calcium staining). It is filed as cell-based, mouse. The note with it: two weeks after confluent state. As for the experimental part: To assess calcification ability of cells, Dahl's calcium staining was performed. The PDL cells were inoculated on a 24-well culture plate at a ratio of 5×10^3 cells/well, and cultured in 2S-containing DMEM added with the peptide (a) or (c) at various concentrations and adjusted by addition of 10 mM sodium β-glycerophosphate. […]
Further, the peptide (a), BMP2 and TGFβ were similarly examined by using the MC3T3 cells.

Assay [4] relates to periodontal disease model. As to the kind of experiment: Periodontal disease model (histology of defect at first molar of the upper jaw). The format is in vivo, Wistar rats. The note with it: one month after operation. As for the experimental part: The following experiment was performed in order to examine action of the peptide of the present invention on a periodontal disease model. • (i) Preparation of Periodontal Disease Model 8-week old Wistar rats were systemically anesthetized with an ethyl carbamate solution in a volume of 0.5 ml per 100 g of body weight, and then the mesial gingiva of each first molar on the upper jaw was vertically incised. The gingival periosteal flap was reflected to expose the mesial alveolar bone of the first molar. Then, a defect having a length of about 2 mm and a buccolingual diameter of about 1 mm was formed from the alveolar bone crest of the same site towards the root apex side by using a fissure bur under pouring saline to expose the mesial root face of the first molar on the upper jaw. The root cementum and surface of dentin was removed together with the periodontal ligament attached to the exposed root face so as to make a shallow cavity. • (ii) Test Method At the aforementioned defect, a sample prepared with 1% PBS solution of sodium hyaluronate (weight average molecular weight: 900,000) was applied on the exposed root face, and the gingival periosteal flap was repositioned and sutured. By using a group of the animals applied with 1% PBS solution of sodium hyaluronate containing the peptide (a) (concentration of the peptide (a): 0.3 mg/ml) as the peptide group, a group of the animals applied with 1% PBS solution of sodium hyaluronate alone as the hyaluronic acid group, and a group of the animals applied with no substance before suture of the gingival periosteal flap for restoration as the control group, healing conditions were compared one month after the operation. The animals were euthanized with chloroform, and each experimental site was excised. The excised upper jaw bone was fixed by immersion in neutrally buffered formalin for 1 day and then decalcified over 2 days by using a rapid decalcifying solution (K-CX). The specimen was embedded in paraffin in a conventional manner, then a mesiodistal section having a thickness of […] and parallel to the longitudinal axis of the tooth root was prepared at the experiment site and stained with hematoxylin/eosin. Adhesion condition of periodontal tissue to the exposed surface of the tooth root at the defective site and the position of the apex of the alveolar bone were evaluated light microscopically. • (iii) Results (Findings)

The mark [5] stands for this setting: peptide (a) 0.3 mg/ml in 1% PBS solution of sodium hyaluronate.

Ends that are not written are not given here.

For the sequence VPAFPRQPGTPGVASL [Peptide (a)], the “PDL cell number (cell growth promoting effect)” value in assay [1] is listed as “significantly increased”. In addition, the “calcification ability of the PDL cells” value in assay [2] is “significantly increased”. Further, the “cell differentiation promoting effect (calcification) on MC3T3 cells” value in assay [3] is on record as “significant cell differentiation promoting effect”. Besides, in assay [3] (comparison with BMP2), the “cell differentiation promoting effect (calcification) on MC3T3 cells relative to BMP2” value is recorded as “comparable to or higher than that of BMP2”. In assay [4] (peptide (a) 0.3 mg/ml in 1% PBS solution of sodium hyaluronate applied on exposed root face, versus control and hyaluronic acid groups), the “down-growth of the epithelium” value is listed as “observed to a less extent”. Also, in assay [4] (setting [5]), the “deposition of cementum with Sharpey's fibers on the exposed root surface” value is listed as “deposition of cementum with Sharpey's fibers, that is, new connective tissue attachment formation, was observed”; the “separation between the gingiva and the tooth root” value is on record as “no such separation was observed”. Further, the “bone regeneration at the periodontal defect” value in assay [4] (peptide (a) 0.3 mg/ml in 1% PBS solution of sodium hyaluronate, versus control and hyaluronic acid groups) is recorded as “more active than in the other two groups”.

These data come from patent US7678884B2, “Biologically active peptide and agent containing the same” (Seikagaku Corporation, priority 2003, dated 2010).
